Experimental data as given in US20100298141A1, “SUBSTITUTED PYRIDINE N-OXIDE HERBICIDES” (E. I. DU PONT DE NEMOURS AND COMPANY, priority 2007, published 2010).

Legend:
[1] = system: blackgrass; assay: Test C pre-/postemergence test; format: in vivo, Alopecurus myosuroides
Summary of the method: (§1)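 Test chemicals were formulated with surfactant in a non-phytotoxic solvent and sprayed both on freshly planted seeds (preemergence) and on 1- to 4-leaf plants of 2–18 cm (postemergence). Flooded-paddy pots received compound directly into 3 cm of standing water, maintained for the test.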

[2] = system: eastern black nightshade; assay: Test C pre-/postemergence test; format: in vivo, Solanum ptycanthum; conditions: Preemergence
Summary of the method: as §1

[3] = system: rice; assay: Test C flooded paddy test; format: in vivo, Oryza sativa; conditions: Flood
Summary of the method: (§2)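 Flooded 3 cm over soil; compound into paddy water; depth kept constant. Greenhouse 13–15 d.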

[4] = system: redroot pigweed; assay: Test A pre-/postemergence greenhouse test; format: in vivo, Amaranthus retroflexus; conditions: for Pigweed plant response rating: 0 to 100 scale
Summary of the method: (§3)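 Test compounds in non-phytotoxic solvent with surfactant were applied as a preemergence soil spray to seeded loam/sand pots and, concurrently, postemergence to plants at 2–10 cm, one- to two-leaf stage. About ten days in greenhouse, then injury visually rated against untreated controls.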

[5] = system: wild oat; assay: Test C pre-/postemergence test; format: in vivo, Avena fatua; conditions: Preemergence
Summary of the method: as §1

[6] = system: corn; assay: Test A pre-/postemergence greenhouse test; format: in vivo, Zea mays; conditions: for Corn plant response rating: 0 to 100 scale
Summary of the method: as §3

[7] = system: crabgrass; assay: Test C pre-/postemergence test; format: in vivo, Digitaria sanguinalis; conditions: Preemergence
Summary of the method: as §1

[8] = system: kochia; assay: Test C pre-/postemergence test; format: in vivo, Kochia scoparia; conditions: Preemergence
Summary of the method: as §1

[9] = system: Surinam grass; assay: Test C pre-/postemergence test; format: in vivo, Brachiaria decumbens; conditions: Preemergence
Summary of the method: as §1

[10] = system: pigweed; assay: Test C pre-/postemergence test; format: in vivo, Amaranthus retroflexus; conditions: Preemergence
Summary of the method: as §1

[11] = system: common (oilseed) sunflower; assay: Test C pre-/postemergence test; format: in vivo, Helianthus annuus; conditions: Preemergence
Summary of the method: as §1

[12] = system: catchweed bedstraw; assay: Test C pre-/postemergence test; format: in vivo, Galium aparine; conditions: Preemergence
Summary of the method: as §1

[13] = system: bermudagrass; assay: Test C pre-/postemergence test; format: in vivo, Cynodon dactylon
Summary of the method: as §1

[14] = system: barnyardgrass; assay: Test C flooded paddy test; format: in vivo, Echinochloa crus-galli; conditions: Flood
Summary of the method: as §2

[15] = system: velvetleaf; assay: Test C pre-/postemergence test; format: in vivo, Abutilon theophrasti; conditions: Preemergence
Summary of the method: as §1

[16] = system: wheat; assay: Test C pre-/postemergence test; format: in vivo, Triticum aestivum; conditions: Preemergence
Summary of the method: as §1

[17] = system: duck salad; assay: Test C flooded paddy test; format: in vivo, Heteranthera limosa; conditions: Flood
Summary of the method: as §2

[18] = Preemergence, 31 g ai/ha, scale 0 to 100 (0 no effect, 100 complete control)
[19] = preemergence, 125 g ai/ha, scale 0 (no effect) to 100 (complete control)
[20] = 31 g ai/ha, scale 0 to 100 (0 no effect, 100 complete control)
[21] = 62 g ai/ha, scale 0 to 100, 0 no effect, 100 complete control, 13 to 15 days
[22] = 125 g ai/ha, scale 0 to 100, 0 no effect, 100 complete control, 13 to 15 days
[23] = 250 g ai/ha, scale 0 to 100 (0 no effect, 100 complete control)
[24] = Postemergence, 125 g ai/ha, 0 is no effect, 100 is complete control
[25] = Postemergence, 500 g ai/ha, 0 is no effect, 100 is complete control
[26] = Preemergence, 125 g ai/ha, 0 no effect, 100 complete control
[27] = Preemergence, 500 g ai/ha, 0 to 100 scale where 0 is no effect and 100 is complete control

For `Cn1nc(C(F)(F)F)c(CS(=O)(=O)c2cccc[n+]2[O-])c1OCC(F)(F)F` [Compound 29], the “Blackgrass plant response rating” value ([1]; 62 g ai/ha, Preemergence, scale 0 to 100) was 100, the “Plant response rating, Blackgrass” value [1, 18] was 98 and the “Plant response rating (0 to 100), Blackgrass” value ([1]; Preemergence, 250 g ai/ha) was 100. The “Blackgrass plant response rating” value [1, 19] was 100, the “Nightshade plant response rating” value ([2]; 62 g ai/ha, scale 0 to 100) was 98 and the “Plant response rating, Nightshade” value [2, 20] was 75. The “Plant response rating, Rice” value [3, 20] was 0, the “Plant response rating, Rice” value [3, 21] was 0 and the “Plant response rating, Rice” value [3, 22] was 40. The “Plant response rating, Rice” value [3, 23] was 80, the “Pigweed plant response rating” value [4, 24] was 70 and the “Pigweed plant response rating” value [4, 25] was 80. For the same compound, the “Pigweed plant response rating” value [4, 26] was 100, the “Plant response rating, Pigweed” value [4, 27] was 100 and the “Oat, Wild plant response rating” value ([5]; 62 g ai/ha, scale 0 to 100) was 50. For the same compound, the “Plant response rating, Oat, Wild” value [5, 20] was 20, the “Corn plant response rating” value [6, 24] was 30 and the “Corn plant response rating” value [6, 25] was 60. For the same compound, the “Corn plant response rating” value [6, 26] was 0, the “Plant response rating, Corn” value [6, 27] was 70 and the “Crabgrass, Large plant response rating” value ([7]; 62 g ai/ha, scale 0 to 100) was 100. For the same compound, the “Plant response rating, Crabgrass, Large” value [7, 20] was 100, the “Plant response rating (0 to 100), Crabgrass, Large” value ([7]; 250 g ai/ha) was 100 and the “Kochia plant response rating” value ([8]; 62 g ai/ha, scale 0 to 100) was 100. The “Plant response rating, Kochia” value [8, 20] was 100, the “Surinam Grass plant response rating” value ([9]; 62 g ai/ha, scale 0 to 100) was 75 and the “Plant response rating, Surinam Grass” value [9, 20] was 75. For the same compound, the “Pigweed plant response rating” value ([10]; 62 g ai/ha, scale 0 to 100) was 100, the “Plant response rating, Pigweed” value [10, 20] was 100 and the “Sunflower plant response rating” value ([11]; 62 g ai/ha, scale 0 to 100) was 60. For the same compound, the “Plant response rating, Sunflower” value [11, 20] was 0, the “Galium plant response rating” value ([12]; 62 g ai/ha, scale 0 to 100) was 100 and the “Plant response rating, Galium” value [12, 20] was 100. The “Plant response rating (0 to 100), Galium” value ([12]; 250 g ai/ha) was 100, the “Bermudagrass plant response rating” value ([13]; 62 g ai/ha, Preemergence, scale 0 to 100 (0 no effect, 100 complete control)) was 100 and the “Plant response rating, Bermudagrass” value [13, 18] was 100. For the same compound, the “Plant response rating (0 to 100), Bermudagrass” value ([13]; Preemergence, 250 g ai/ha) was 100, the “Bermudagrass plant response rating” value [13, 19] was 100 and the “Plant response rating, Barnyardgrass” value [14, 20] was 0. For the same compound, the “Plant response rating, Barnyardgrass” value [14, 21] was 0, the “Plant response rating, Barnyardgrass” value [14, 22] was 40 and the “Plant response rating, Barnyardgrass” value [14, 23] was 80. For the same compound, the “Velvetleaf plant response rating” value ([15]; 62 g ai/ha, scale 0 to 100) was 100, the “Plant response rating, Velvetleaf” value [15, 20] was 30 and the “Wheat plant response rating” value ([16]; 62 g ai/ha, scale 0 to 100) was 30. For the same compound, the “Plant response rating, Wheat” value [16, 20] was 20, the “Plant response rating, Ducksalad” value [17, 20] was 70 and the “Plant response rating, Ducksalad” value [17, 21] was 80. For the same compound, the “Plant response rating, Ducksalad” value [17, 23] was 90.
